Laboratory results: patent publication US6046331A, “Imidazolones and their use in treating benign prostatic hyperplasia and other disorders” (Synaptic Pharmaceutical Corporation, priority 1998, dated 2000)

The compounds below were run against T1, human α1d receptor (Homo sapiens, UniProt P25100) (assay: Radioligand binding ([^3 H]prazosin) at cloned human α1d receptor). Settings: LM(tk-) cell membranes, read-out: hα1d Ki.
T1 construct: The entire coding region of α1d (1719 bp); expressed in transfected cells; host or cells: LM(tk-) mouse fibroblast line L-α1A (old nomenclature), ATCC CRL 11138
T1 sequence (P25100 1-572): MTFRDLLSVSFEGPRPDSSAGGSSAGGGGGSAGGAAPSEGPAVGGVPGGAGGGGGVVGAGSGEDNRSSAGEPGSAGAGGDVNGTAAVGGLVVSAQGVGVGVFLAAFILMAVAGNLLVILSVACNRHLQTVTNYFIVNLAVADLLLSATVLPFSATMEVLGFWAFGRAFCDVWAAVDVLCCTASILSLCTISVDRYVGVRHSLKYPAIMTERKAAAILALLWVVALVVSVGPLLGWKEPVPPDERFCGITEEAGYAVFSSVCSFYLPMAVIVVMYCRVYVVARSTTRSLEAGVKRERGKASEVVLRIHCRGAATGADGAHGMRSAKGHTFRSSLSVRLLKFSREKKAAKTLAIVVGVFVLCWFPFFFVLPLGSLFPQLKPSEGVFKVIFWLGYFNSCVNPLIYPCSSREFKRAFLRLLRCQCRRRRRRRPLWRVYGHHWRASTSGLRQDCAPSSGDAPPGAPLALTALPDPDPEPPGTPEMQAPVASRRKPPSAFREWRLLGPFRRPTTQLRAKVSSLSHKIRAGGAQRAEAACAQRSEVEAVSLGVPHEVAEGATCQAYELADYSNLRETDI
Method: Binding affinities were measured for selected compounds of the invention at six cloned human α1 and α2 receptor subtypes, as well as at the L-type calcium channel. The protocols for these experiments are given below.
The activity of compounds at the different human receptors was determined in vitro using cultured cell lines that selectively express the receptor of interest. These cell lines were prepared by transfecting the cloned cDNA or cloned genomic DNA or constructs containing both genomic DNA and cDNA encoding the human α-adrenergic receptors as follows:
α1d Human Adrenergic Receptor: The entire coding region of α1d (1719 bp), including 150 base pairs of 5' untranslated sequence (5' UT) and 300 bp of 3' untranslated sequence (3' UT), was cloned into the BamHI and ClaI sites of the polylinker-modified eukaryotic expression vector pCEXV-3, called EXJ.HR. The construct involved the ligation of partial overlapping human lymphocyte genomic and hippocampal cDNA clones: 5' sequence were contained on a 1.2 kb SmaI-XhoI genomic fragment (the vector-derived BamHI site was used for subcloning instead of the internal insert-derived SmaI site) and 3' sequences were contained on an 1.3 kb XhoI-ClaI cDNA fragment (the ClaI site was from the vector polylinker). Stable cell lines were obtained by cotransfection with the plasmid α1A/EXJ (expression vector containing the α1a receptor gene (old nomenclature)) and the plasmid pGCcos3neo (plasmid containing the aminoglycoside transferase gene) into LM(tk-) cells using calcium phosphate technique. The cells were grown, in a controlled environment (37° C., 5% CO2), as monolayers in Dulbecco's modified Eagle's Medium (GIBCO, Grand Island, N.Y.) containing 25 mM glucose and supplemented with 10% bovine calf serum, 100 units/ml penicillin g, and 100 μg/ml streptomycin sulfate. Stable clones were then selected for resistance to the antibiotic G-418 (1 mg/ml), and membranes were harvested and assayed for their ability to bind [^3 H]prazosin as described below (see "Radioligand Binding assays").
The cell line expressing the human α1d receptor used herein was designated L-α1A (old nomenclature) and was deposited with the American Type Culture Collection, 12301 Parklawn Drive, Rockville, Md. 20852, U.S.A. under the provisions of the Budapest Treaty for the International Recognition of the Deposit of Microorganisms for the Purposes of Patent Procedure. The cell line expressing the human α1d receptor, was accorded ATCC Accession No. CRL 11138, and was deposited on Sep. 25, 1992.
Radioligand Binding Assays for α1 receptors:
Transfected cells from culture flasks were scraped into 5 ml of 5 mM Tris-HCl, 5 mM EDTA, pH 7.5, and lysed by sonication. The cell lysates were centrifuged at 1000 rpm for 5 min at 4° C., and the supernatant was centrifuged at 30,000× g for 20 min at 4° C. The pellet was suspended in 50 mM Tris-HCl, 1 mM MgCl2, and 0.1% ascorbic acid at pH 7.5. Binding of the α1 antagonist [^3 H]prazosin (0.5 nM, specific activity 76.2 Ci/mmol) to membrane preparations of LM(tk-) cells was done in a final volume of 0.25 ml and incubated at 37° C. for 20 min. Nonspecific binding was determined in the presence of […] phentolamine. The reaction was stopped by filtration through GF/B filters using a cell harvester. Inhibition experiments, routinely consisting of 7 concentrations of the tested compounds, were analyzed using a non-linear regression curve-fitting computer program to obtain Ki values.
The compounds described above were assayed using cloned human alpha adrenergic receptors. […] The binding affinities of several compounds are illustrated in the following table.
Binding affinities of selected compounds of the present invention at cloned human α1d, α1b and α1a receptors. (h=human)

| SMILES | Ki |
| --- | --- |
| COC(=O)c1[nH]c(=O)n(CCCCCN2CCC(C(=O)OC)(c3ccccc3)CC2)c1-c1ccc(F)c(F)c1 [Compound 1, 1-(5-(4-Methoxycarbonyl-4-phenylpiperidin-1-yl)pent-1-yl)-4-methoxycarbonyl-5-(3,4-difluorophenyl)-2,3-dihydro-2(1H)-imidazolone] | 329 nM |
| COC(=O)c1[nH]c(=O)n(CCCCCN2CCC(C#N)(c3ccccc3)CC2)c1-c1ccc(F)c(F)c1 [Compound 2, 5-(3,4-Difluorophenyl)-2,3-dihydro-4-methoxycarbonyl-1-(5-(4-cyano-4-phenylpiperidin-1-yl)pent-1-yl)-2(1H)-imidazolone] | 367 nM |
| COC(=O)c1[nH]c(=O)n(CCCCCN2CCC(O)(c3ccccc3)CC2)c1-c1ccc(F)c(F)c1 [Compound 3, 5-(3,4-Difluorophenyl)-2,3-dihydro-4-methoxycarbonyl-1-(5-(4-hydroxy-4-phenylpiperidin-1-yl)pent-1-yl)-2(1H)-imidazolone] | 2660 nM |
| COC(=O)c1[nH]c(=O)n(CCCCCN2CCN(c3ccccc3C(N)=O)CC2)c1-c1cc(F)c(F)c(F)c1 [Compound 4, 1-(5-(4-(2-Aminocarbonylphenyl)piperazin-1-yl)pent-1-yl)-5-(3,4,5-trifluorophenyl)-2,3-dihydro-4-methoxycarbonyl-2(1H)-imidazolone] | 279 nM |
| COC(=O)c1ccccc1N1CCN(CCCCCn2c(-c3cc(F)c(F)c(F)c3)c(C(=O)OC)[nH]c2=O)CC1 [Compound 5, 5-(3,4,5-Trifluorophenyl)-2,3-dihydro-4-methoxycarbonyl-1-(5-(4-(2-methoxycarbonylphenyl)piperazin-1-yl)pent-1-yl)-2(1H)-imidazolone] | 15.7 nM |
| CCOC(=O)c1[nH]c(=O)n(CCCCCN2CCN(c3ccccc3C(N)=O)CC2)c1-c1ccc(F)c(F)c1 [Compound 6, 1-(5-(4-(2-Aminocarbonylphenyl)piperazin-1-yl)pent-1-yl)-4-ethoxycarbonyl-5-(3,4-difluorophenyl)-2,3-dihydro-2(1H)-imidazolone] | 141 nM |
| COC(=O)c1[nH]c(=O)n(CCCCCN2CCN(c3ccccc3C(N)=O)CC2)c1-c1cc(F)c(F)cc1F [Compound 7, 1-(5-(4-(2-Aminocarbonylphenyl)piperazin-1-yl)pent-1-yl)-5-(2,4,5-trifluorophenyl)-2,3-dihydro-4-methoxylcarboxy-2(1H)-imidazolone] | 197 nM |
| COC(=O)c1[nH]c(=O)n(CCCCCN2CCC(C(=O)OC)(c3ccccc3)CC2)c1Cc1ccc(F)c(F)c1 [Compound 37, 5-(3,4-Difluorobenzyl)-2,3-dihydro-4-methoxycarbonyl-1-(5-(4-methoxycarbonyl-4-phenylpiperidin-1-yl)pent-1-yl)-2(1H) -imidazolone] | 513 nM |
